Laboratory results published in doi:10.1101/2022.10.08.511437v2 (biorxiv, 2023).

Legend:
[1] = target: T1, full-length elephant shark GR (Callorhinchus milii, UniProt V9KGN8); assay: cell-based; design: species or system HEK293
T1 sequence (V9KGN8 1-704): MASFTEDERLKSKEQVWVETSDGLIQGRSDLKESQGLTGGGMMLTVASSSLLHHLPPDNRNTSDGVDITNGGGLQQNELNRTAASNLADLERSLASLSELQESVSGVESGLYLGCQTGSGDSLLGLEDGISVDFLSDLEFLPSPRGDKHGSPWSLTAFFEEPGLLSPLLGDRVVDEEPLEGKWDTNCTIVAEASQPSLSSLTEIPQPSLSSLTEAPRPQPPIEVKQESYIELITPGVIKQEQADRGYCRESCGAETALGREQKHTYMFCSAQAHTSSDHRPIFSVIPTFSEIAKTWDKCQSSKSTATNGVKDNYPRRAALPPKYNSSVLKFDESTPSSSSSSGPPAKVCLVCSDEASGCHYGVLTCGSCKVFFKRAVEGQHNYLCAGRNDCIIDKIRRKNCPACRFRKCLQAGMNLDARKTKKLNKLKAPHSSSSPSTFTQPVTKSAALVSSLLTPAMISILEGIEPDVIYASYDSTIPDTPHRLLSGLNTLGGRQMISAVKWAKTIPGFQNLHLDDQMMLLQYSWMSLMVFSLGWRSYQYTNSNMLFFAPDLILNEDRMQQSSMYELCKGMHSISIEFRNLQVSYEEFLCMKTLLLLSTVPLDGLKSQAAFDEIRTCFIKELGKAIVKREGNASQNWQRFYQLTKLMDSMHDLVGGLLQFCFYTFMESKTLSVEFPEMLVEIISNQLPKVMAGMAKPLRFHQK

[2] = target: T1, full-length elephant shark GR; assay: cell-based; design: species or system HEK293; remark: listed apart in the source
[3] = target: T2, full-length elephant shark MR (Callorhinchus milii, UniProt A0A4W3I5J5); assay: cell-based; design: species or system HEK293
T2 sequence (A0A4W3I5J5 1-956): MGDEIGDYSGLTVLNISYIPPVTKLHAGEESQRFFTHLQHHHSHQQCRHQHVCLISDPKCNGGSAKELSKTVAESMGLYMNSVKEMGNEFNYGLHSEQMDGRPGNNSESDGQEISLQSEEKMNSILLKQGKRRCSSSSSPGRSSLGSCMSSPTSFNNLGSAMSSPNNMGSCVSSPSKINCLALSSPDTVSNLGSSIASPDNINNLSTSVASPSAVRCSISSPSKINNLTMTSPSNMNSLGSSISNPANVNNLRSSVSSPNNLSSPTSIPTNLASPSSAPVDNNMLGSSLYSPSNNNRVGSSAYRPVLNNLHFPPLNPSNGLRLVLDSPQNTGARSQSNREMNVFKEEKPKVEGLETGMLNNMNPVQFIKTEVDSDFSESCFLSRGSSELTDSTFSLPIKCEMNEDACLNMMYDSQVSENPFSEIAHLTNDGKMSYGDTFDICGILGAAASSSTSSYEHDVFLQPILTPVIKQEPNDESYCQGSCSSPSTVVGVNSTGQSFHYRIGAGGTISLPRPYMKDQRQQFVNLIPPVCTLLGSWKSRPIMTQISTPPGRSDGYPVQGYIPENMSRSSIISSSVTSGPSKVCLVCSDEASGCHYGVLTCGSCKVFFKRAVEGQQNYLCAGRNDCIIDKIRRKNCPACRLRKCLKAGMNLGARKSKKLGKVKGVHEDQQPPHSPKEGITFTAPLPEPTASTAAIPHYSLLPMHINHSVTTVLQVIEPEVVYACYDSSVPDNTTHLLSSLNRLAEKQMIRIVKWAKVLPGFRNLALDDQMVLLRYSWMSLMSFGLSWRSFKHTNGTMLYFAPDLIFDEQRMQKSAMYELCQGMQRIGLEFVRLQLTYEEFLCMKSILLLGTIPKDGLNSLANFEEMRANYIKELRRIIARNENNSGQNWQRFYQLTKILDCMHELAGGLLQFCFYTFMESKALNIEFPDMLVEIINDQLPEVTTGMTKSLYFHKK

[4] = target: T1, full-length elephant shark GR; assay: luciferase reporter transactivation in HEK293 cells; assay type: cell-based

Row | EC50 [1] [nM] | EC50 [2] [nM] | EC50 [3] [nM] | EC50 [4] [nM] | Compound
1 | 11 | 11.2 |  |  | C[C@]12CC[C@H]3[C@@H](CCC4=CC(=O)CC[C@@]43C)[C@@H]1CC[C@@H]2C(=O)CO [11-deoxycorticosterone]
2 |  |  | 0.2 | 289 | C[C@]12CCC(=O)C=C1CC[C@@H]1[C@@H]2CC[C@@]2(C)[C@H]1CC[C@]2(O)C(=O)CO [11-deoxycortisol]
3 |  |  | 0.08 |  | C[C@]12CCC(=O)C=C1CC[C@@H]1[C@@H]2[C@@H](O)C[C@]2(C=O)[C@@H](C(=O)CO)CC[C@@H]12 [aldosterone]
4 |  |  | 1 |  | C[C@]12C[C@H](O)[C@H]3[C@@H](CCC4=CC(=O)CC[C@@]43C)[C@@H]1CC[C@@H]2C(=O)CO [corticosterone]
5 |  |  | 2.4 |  | C[C@]12CCC(=O)C=C1CC[C@@H]1[C@@H]2[C@@H](O)C[C@@]2(C)[C@H]1CC[C@]2(O)C(=O)CO [cortisol]
